# Measurements published in PubChem BioAssay AID1963443 (Molecular Pharmacology Branch, DTP, NCI, 2024).
# Where “and” joins values, the source holds several entries; their conditions need not be identical. Identical values can stand only once.
# System: MDA-MB-231 complex spheroids, growth inhibition
# Assay: Anticancer human tumor MDA-MB-231 cell line growth inhibition [Asc];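 further: spheroids exposed to compounds for 7 days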
# Details: for viability, T/C: stronger effect = lower value
# Procedure: Multicellular complex tumor spheroid response to apoptosis pathway targeting inhibitors Alrizomadlin, Pelcitoclax, and Dasminapant in combination with a variety of drugs and investigational agents in selected tumor cell lines
# The MDM2 inhibitor alrizomadlin, the Bcl-2/Bcl-xL inhibitor pelcitoclax, and the IAPs inhibitor dasminapant were evaluated both individually and in combination with standard of care and investigational anticancer small molecules within a complex spheroid model of solid tumors. . Complex spheroids include a stromal component modeled by human endothelial cells (HUVEC) and fibroblasts modeled by human mesenchymal stem cells (MSCs). The concentration ranges selected for each drug and investigational agent were based upon clinically achievable concentrations if the clinical Cmax of the agent was known.
# Compounds. The drugs and investigational agents: alrizomadlin (APG-115; NSC831270), pelcitoclax (APG-1252; NSC835773), dasminapant (APG-1387;NSC834197), TAK-243 (NSC785004), copanlisib (NSC809693), olaparib (NSC753686), talazoparib (NSC767125), cobimetinib (NSC 768068), eltanexor (KPT-8602, NSC 794443), abemaciclib (NSC 768073), sotorasib (NSC818433), adagrasib (NSC 831453), MRTX-1133 (NSC 836407), Iadademestat (ORY1001, NSC 806812), and RMC-4630 (NSC839698), were obtained from the NCI Developmental Therapeutics Program Chemical Repository. The FDA-approved anticancer drug set is available from the Developmental Therapeutics Program at https://dtp.cancer.gov/organization/dscb/obtaining/available plates.htm. […] The stock solutions were prepared in dimethyl sulfoxide (DMSO, Sigma-Aldrich, St. Louis, MO, cat. D2650) at 800-fold the tested concentration and stored at -70 degrees C prior to their use. All drugs and investigational agents were tested over a range starting from a high concentration at or near the clinical Cmax and decreasing in half-log increments. If the clinical Cmax for an agent had not been determined, the highest concentration tested was 10 microM.
# The patient-derived cancer (PDC) cell lines include five colon adenocarcinomas: 186277-243-T-J2-PDC, 616215-338-R-J1-PDC, 439559-082-T-J2-PDC, 463943-066-T-J2-PDC, and 519858-162-T-J1-PDC; three pancreatic carcinomas: 323965-272-R-J2-PDC, 521955-158-R6-J3-PDC, and 521955-158-R2-J5-PDC; two uterine sarcomas: 327498-152-R-J2-PDC and 993429-296-R-J1-PDC; two rhabdomyosarcomas: 755483-174-R-J1-PDC and 772245-204-R-J1-PDC; two soft tissue sarcomas: 126254-015-R-J1-PDC and 494315-158-R-J1-PDC; two malignant fibrous histiocytomas: 317291-083-R-J1-PDC and 596521-263-R-J1-PDC; two breast carcinomas: 171881-019-R-J1-PDC and 885512-296-R-J2-PDC; and one ovarian carcinoma: 6556581-035-R-J-PDC were obtained from the NCI PDMR, (https://pdmr.cancer.gov). The established cell lines HSSY-2 synovial sarcoma (RRID:CVCL 8719), SYO-1 synovial sarcoma (RRID:CVCL_7146), MPNST malignant peripheral neural sheath tumor were obtained from the Sloan Kettering Institute. The following established cell lines were purchased from the American Type Culture Collection (ATCC, Manassas, VA), Sor the received from the NCI repository:, PANC-1 pancreatic carcinoma (CRL-1469, RRID:CVCL_0480), OVCAR-5 ovarian carcinoma (RRID:CVCL_1628), OVCAR-8 ovarian carcinoma (RRID:CVCL_1629), , MCF-7 breast carcinoma (CRL-12584, RRID:CVCL_0031), MDA-MB-231 breast carcinoma (CRL-12532, RRID:CVCL_0062), NCI-H1876 small cell lung carcinoma (CRL-5902, RRID:CVCL_1503), NCI-H510A small cell lung carcinoma (HTB-184, RRID:CVCL_1565), NCI-H1417 (CRL-5869, RRID:CVCL_1469), and NCI-H196 small cell lung carcinoma (CRL-5823, RRID:CVCL_1509). Dr. Peter Houghton (Greehey Children's Cancer Research Institute, University of Texas Health Science Center, San Antonio, TX) provided Rh-18 rhabdomyosarcoma (RRID:CVCL_1659). Pooled donor human umbilical vein endothelial cells (HUVEC, Lonza, cat. CC-2519) and human mesenchymal stem cells (hMSC, Lonza, cat. PT-2501) were purchased from Lonza (Walkersville, MD).
# Cell Culture. […]
# [1] = curve of first compound, second compound 0.01 µM
# [2] = curve of first compound, second compound 0.0316 µM
# [3] = curve of first compound, second compound 0.1 µM
# [4] = curve of first compound, second compound 0.316 µM
# [5] = curve of first compound, second compound 1 µM
smiles,measurement,setting,value
CCN1C(C(=O)NC23CCC(C(=O)O)(CC2)CC3)C(c2cccc(Cl)c2F)C2(C(=O)Nc3cc(Cl)ccc32)C12CCCCC2 (configuration not stated) + CNC(C)C(=O)NC1CN(S(=O)(=O)c2cccc(S(=O)(=O)N3CCC4CCC(C(=O)NC(c5ccccc5)c5ccccc5)N4C(=O)C(NC(=O)C(C)NC)C3)c2)CCC2CCC(C(=O)NC(c3ccccc3)c3ccccc3)N2C1=O,IC50,[1],< 9.49 nM
same,IC50,[2],< 9.49 nM
same,IC50,[3],< 9.49 nM
same,IC50,[4],< 9.49 nM
same,IC50,[5],< 9.49 nM
same,"viability, T/C","second compound 0.01 µM, first compound 0.00949 µM",2.02%
same,"viability, T/C","second compound 0.01 µM, first compound 0.03 µM",2.75%
same,"viability, T/C","second compound 0.01 µM, first compound 0.0949 µM",1.79%
same,"viability, T/C","second compound 0.01 µM, first compound 0.3 µM",1.37%
same,"viability, T/C","second compound 0.01 µM, first compound 0.949 µM",2.73%
same,"viability, T/C","second compound 0.01 µM, first compound 3 µM",2.05%
same,"viability, T/C","second compound 0.0316 µM, first compound 0.00949 µM",1.54%
same,"viability, T/C","second compound 0.0316 µM, first compound 0.03 µM",2.84%
same,"viability, T/C","second compound 0.0316 µM, first compound 0.0949 µM",1.94%
same,"viability, T/C","second compound 0.0316 µM, first compound 0.3 µM",0.92%
same,"viability, T/C","second compound 0.0316 µM, first compound 0.949 µM",1.76%
same,"viability, T/C","second compound 0.0316 µM, first compound 3 µM",1.43%
same,"viability, T/C","second compound 0.1 µM, first compound 0.00949 µM",1.27%
same,"viability, T/C","second compound 0.1 µM, first compound 0.03 µM",1.6%
same,"viability, T/C","second compound 0.1 µM, first compound 0.0949 µM",1.85%
same,"viability, T/C","second compound 0.1 µM, first compound 0.3 µM",0.87%
same,"viability, T/C","second compound 0.1 µM, first compound 0.949 µM",1.78%
same,"viability, T/C","second compound 0.1 µM, first compound 3 µM",2.03%
same,"viability, T/C","second compound 0.316 µM, first compound 0.00949 µM",0.92%
same,"viability, T/C","second compound 0.316 µM, first compound 0.03 µM",2.14%
same,"viability, T/C","second compound 0.316 µM, first compound 0.0949 µM",1.07%
same,"viability, T/C","second compound 0.316 µM, first compound 0.3 µM",0.78%
same,"viability, T/C","second compound 0.316 µM, first compound 0.949 µM",1.14%
same,"viability, T/C","second compound 0.316 µM, first compound 3 µM",1.24%
same,"viability, T/C","second compound 1 µM, first compound 0.00949 µM",1.09%
same,"viability, T/C","second compound 1 µM, first compound 0.03 µM",0.9%
same,"viability, T/C","second compound 1 µM, first compound 0.0949 µM",0.88%
same,"viability, T/C","second compound 1 µM, first compound 0.3 µM",2.3%
same,"viability, T/C","second compound 1 µM, first compound 0.949 µM",0.81%
same,"viability, T/C","second compound 1 µM, first compound 3 µM",0.71%
CCN1CCN(Cc2ccc(Nc3ncc(F)c(-c4cc(F)c5nc(C)n(C(C)C)c5c4)n3)nc2)CC1 + CNC(C)C(=O)NC1CN(S(=O)(=O)c2cccc(S(=O)(=O)N3CCC4CCC(C(=O)NC(c5ccccc5)c5ccccc5)N4C(=O)C(NC(=O)C(C)NC)C3)c2)CCC2CCC(C(=O)NC(c3ccccc3)c3ccccc3)N2C1=O,IC50,[1],< 3.16 nM
same,IC50,[2],< 3.16 nM
same,IC50,[3],< 3.16 nM
same,IC50,[4],< 3.16 nM
same,IC50,[5],< 3.16 nM
same,"viability, T/C","second compound 0.01 µM, first compound 0.00316 µM",2.49%
same,"viability, T/C","second compound 0.01 µM, first compound 0.01 µM",2.43%
same,"viability, T/C","second compound 0.01 µM, first compound 0.0316 µM",2.51%
same,"viability, T/C","second compound 0.01 µM, first compound 0.1 µM",1.88%
same,"viability, T/C","second compound 0.01 µM, first compound 0.316 µM",2.98%
same,"viability, T/C","second compound 0.01 µM, first compound 1 µM",2.28%
same,"viability, T/C","second compound 0.0316 µM, first compound 0.00316 µM",1.93%
same,"viability, T/C","second compound 0.0316 µM, first compound 0.01 µM",1.53%
same,"viability, T/C","second compound 0.0316 µM, first compound 0.0316 µM",1.38%
same,"viability, T/C","second compound 0.0316 µM, first compound 0.1 µM",1.94%
same,"viability, T/C","second compound 0.0316 µM, first compound 0.316 µM",1.87%
same,"viability, T/C","second compound 0.0316 µM, first compound 1 µM",1.71%
same,"viability, T/C","second compound 0.1 µM, first compound 0.00316 µM",1.19%
same,"viability, T/C","second compound 0.1 µM, first compound 0.01 µM",1.19%
same,"viability, T/C","second compound 0.1 µM, first compound 0.0316 µM",1.61%
same,"viability, T/C","second compound 0.1 µM, first compound 0.1 µM",1.32%
same,"viability, T/C","second compound 0.1 µM, first compound 0.316 µM",1.44%
same,"viability, T/C","second compound 0.1 µM, first compound 1 µM",1.16%
same,"viability, T/C","second compound 0.316 µM, first compound 0.00316 µM",0.98%
same,"viability, T/C","second compound 0.316 µM, first compound 0.01 µM",1.26%
same,"viability, T/C","second compound 0.316 µM, first compound 0.0316 µM",1.17%
same,"viability, T/C","second compound 0.316 µM, first compound 0.1 µM",1.28%
same,"viability, T/C","second compound 0.316 µM, first compound 0.316 µM",1.38%
same,"viability, T/C","second compound 0.316 µM, first compound 1 µM",1.15%
same,"viability, T/C","second compound 1 µM, first compound 0.00316 µM",1.1%
same,"viability, T/C","second compound 1 µM, first compound 0.01 µM",0.95%
same,"viability, T/C","second compound 1 µM, first compound 0.0316 µM",1.26%
same,"viability, T/C","second compound 1 µM, first compound 0.1 µM",1.51%
same,"viability, T/C","second compound 1 µM, first compound 0.316 µM",1.22%
same,"viability, T/C","second compound 1 µM, first compound 1 µM",1.35%
C#Cc1c(F)ccc2cc(O)cc(-c3ncc4c(N5CC6CCC(C5)N6)nc(OCC56CCCN5CC(F)C6)nc4c3F)c12 (configuration not stated),"viability, T/C",compound 0.0316 µM,120% and 100% and 106%
same,"viability, T/C",compound 0.1 µM,95.9% and 97.5% and 97.1%
same,"viability, T/C",compound 0.316 µM,111% and 98.8% and 91.7%
same,"viability, T/C",compound 1 µM,66.2% and 72.6% and 72.7%
same,"viability, T/C",compound 3.16 µM,48.7% and 64.1% and 62.1%
same,"viability, T/C",compound 10 µM,35.2% and 51.7% and 50.2%
same,IC50,curve of compound,2170 nM and > 10000 nM
